For this series the following is noted: 100 kPa, Liquid, Vibrating tube method.

Molecules are shown by their SMILES. Numbers after ± are expanded uncertainties.

Take `CCC(C)(C)O` [2-methylbutan-2-ol]: the mass density (273.65 K) came to 826.7 ± 2 kg/m3; the mass density (274.15 K) is 826.3 ± 2 kg/m3; the mass density (274.65 K) was 825.8 ± 2 kg/m3; the mass density (275.15 K) came out at 825.4 ± 2 kg/m3; the mass density (275.65 K) was 824.9 ± 2 kg/m3; the mass density (276.15 K) is given as 824.5 ± 2 kg/m3. The mass density was 824 ± 2 kg/m3 (276.65 K); 823.5 ± 2 kg/m3 (277.15 K); 823.1 ± 2 kg/m3 (277.65 K); 822.6 ± 2 kg/m3 (278.15 K); 822.2 ± 2 kg/m3 (278.65 K); 821.7 ± 2 kg/m3 (279.15 K). Also, the mass density reads like this: (279.65 K) 821.3 ± 2 kg/m3; (280.15 K) 820.8 ± 2 kg/m3; (280.65 K) 820.3 ± 2 kg/m3; (281.15 K) 819.9 ± 2 kg/m3; (281.65 K) 819.4 ± 2 kg/m3; (282.15 K) 819 ± 2 kg/m3.

Regarding `CCC(O)CC` [3-pentanol], the mass density is, setting by setting: (273.65 K) 835.7 ± 2.1 kg/m3; (274.15 K) 835.3 ± 2.1 kg/m3; (274.65 K) 834.9 ± 2.1 kg/m3; (275.15 K) 834.5 ± 2.1 kg/m3; (275.65 K) 834.1 ± 2.1 kg/m3; (276.15 K) 833.7 ± 2.1 kg/m3. Also, the mass density (276.65 K) is 833.3 ± 2.1 kg/m3; the mass density (277.15 K) is reported as 832.9 ± 2.1 kg/m3; the mass density (277.65 K) is on record as 832.5 ± 2.1 kg/m3; the mass density (278.15 K) was determined as 832.1 ± 2.1 kg/m3; the mass density (278.65 K) was determined as 831.7 ± 2.1 kg/m3; the mass density (279.15 K) was 831.3 ± 2.1 kg/m3. Further, the mass density is, setting by setting: (279.65 K) 830.9 ± 2.1 kg/m3; (280.15 K) 830.5 ± 2.1 kg/m3; (280.65 K) 830.1 ± 2.1 kg/m3; (281.15 K) 829.7 ± 2.1 kg/m3; (281.65 K) 829.3 ± 2.1 kg/m3; (282.15 K) 828.9 ± 2.1 kg/m3.

For the compound `CCCC(C)O` (centres undefined) [pentan-2-ol], the mass density reads like this: (273.65 K) 824 ± 2.1 kg/m3; (274.15 K) 823.6 ± 2.1 kg/m3; (274.65 K) 823.2 ± 2.1 kg/m3; (275.15 K) 822.8 ± 2.1 kg/m3; (275.65 K) 822.5 ± 2.1 kg/m3; (276.15 K) 822.1 ± 2.1 kg/m3. The mass density is, setting by setting: (276.65 K) 821.7 ± 2.1 kg/m3; (277.15 K) 821.3 ± 2.1 kg/m3; (277.65 K) 820.9 ± 2.1 kg/m3; (278.15 K) 820.6 ± 2.1 kg/m3; (278.65 K) 820.2 ± 2.1 kg/m3; (279.15 K) 819.8 ± 2.1 kg/m3. The mass density runs as follows: (279.65 K) 819.4 ± 2.1 kg/m3; (280.15 K) 819.1 ± 2.1 kg/m3; (280.65 K) 818.7 ± 2.1 kg/m3; (281.15 K) 818.3 ± 2.1 kg/m3; (281.65 K) 817.9 ± 2.1 kg/m3; (282.15 K) 817.5 ± 2.1 kg/m3.

The mass density is mass per unit of volume.
